Data: ChEMBL document CHEMBL1143549, “Novel 4-amino-furo[2,3-d]pyrimidines as Tie-2 and VEGFR2 dual inhibitors” (Bioorg Med Chem Lett, 2005)

Columns and labels:
[1] = biological target: T1, Angiopoietin-1 receptor (Homo sapiens, UniProt Q02763); assay: Inhibitory concentration against human tyrosine protein kinase receptor TIE-2
[2] = biological target: Vascular endothelial growth factor receptor 2 (Homo sapiens, UniProt P35968); assay: Inhibitory concentration against human vascular endothelial growth factor receptor 2
Sequence of Vascular endothelial growth factor receptor 2 (P35968 whole entry): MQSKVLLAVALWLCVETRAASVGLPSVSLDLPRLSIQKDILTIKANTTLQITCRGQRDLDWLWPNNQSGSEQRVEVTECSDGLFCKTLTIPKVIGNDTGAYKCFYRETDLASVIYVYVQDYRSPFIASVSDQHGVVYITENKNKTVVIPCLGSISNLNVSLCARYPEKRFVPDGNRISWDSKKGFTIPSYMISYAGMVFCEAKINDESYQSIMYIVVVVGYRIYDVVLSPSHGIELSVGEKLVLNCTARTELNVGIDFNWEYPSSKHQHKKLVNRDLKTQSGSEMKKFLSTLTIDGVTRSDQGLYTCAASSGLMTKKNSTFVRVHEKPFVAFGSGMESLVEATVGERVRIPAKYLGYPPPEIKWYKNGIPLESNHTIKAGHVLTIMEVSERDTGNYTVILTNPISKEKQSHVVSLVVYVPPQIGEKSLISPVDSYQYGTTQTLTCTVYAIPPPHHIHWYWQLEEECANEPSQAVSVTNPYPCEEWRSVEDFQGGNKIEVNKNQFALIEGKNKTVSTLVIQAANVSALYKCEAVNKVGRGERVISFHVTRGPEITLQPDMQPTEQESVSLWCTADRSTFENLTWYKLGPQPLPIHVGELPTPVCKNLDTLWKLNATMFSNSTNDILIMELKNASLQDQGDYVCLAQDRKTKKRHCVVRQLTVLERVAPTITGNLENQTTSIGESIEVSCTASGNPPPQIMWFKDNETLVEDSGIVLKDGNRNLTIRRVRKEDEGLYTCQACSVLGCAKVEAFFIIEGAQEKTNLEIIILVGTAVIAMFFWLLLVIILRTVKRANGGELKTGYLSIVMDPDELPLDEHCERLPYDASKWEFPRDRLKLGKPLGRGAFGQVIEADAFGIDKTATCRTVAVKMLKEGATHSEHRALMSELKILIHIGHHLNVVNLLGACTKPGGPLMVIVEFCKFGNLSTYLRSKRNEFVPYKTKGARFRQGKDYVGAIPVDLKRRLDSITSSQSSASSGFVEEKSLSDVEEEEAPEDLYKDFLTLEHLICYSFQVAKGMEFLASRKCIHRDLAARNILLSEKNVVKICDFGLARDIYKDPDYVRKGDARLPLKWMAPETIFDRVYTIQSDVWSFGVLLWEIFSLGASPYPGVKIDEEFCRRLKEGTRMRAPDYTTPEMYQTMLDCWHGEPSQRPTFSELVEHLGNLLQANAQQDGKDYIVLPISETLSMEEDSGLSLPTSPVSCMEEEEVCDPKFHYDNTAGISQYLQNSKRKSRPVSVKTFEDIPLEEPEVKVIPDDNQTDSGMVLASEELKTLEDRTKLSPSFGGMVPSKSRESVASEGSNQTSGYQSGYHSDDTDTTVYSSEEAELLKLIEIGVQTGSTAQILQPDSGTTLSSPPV

[3] = tested on: HFF; assay: Cytotoxic concentration against HFF cells was determined; type: functional, cell-based; settings: Homo sapiens
[4] = tested on: HUVEC; assay: Concentration required for growth inhibition of human umbilical vein endothelial cells stimulated by VEGF; type: functional, cell-based
[5] = biological target: T1, Angiopoietin-1 receptor; assay: Concentration required to inhibit autophosphorylation of tyrosine protein kinase receptor TIE-2 transfected in 3T3 cells; type: functional, cell-based, NIH3T3

T1 sequence (Q02763 whole entry): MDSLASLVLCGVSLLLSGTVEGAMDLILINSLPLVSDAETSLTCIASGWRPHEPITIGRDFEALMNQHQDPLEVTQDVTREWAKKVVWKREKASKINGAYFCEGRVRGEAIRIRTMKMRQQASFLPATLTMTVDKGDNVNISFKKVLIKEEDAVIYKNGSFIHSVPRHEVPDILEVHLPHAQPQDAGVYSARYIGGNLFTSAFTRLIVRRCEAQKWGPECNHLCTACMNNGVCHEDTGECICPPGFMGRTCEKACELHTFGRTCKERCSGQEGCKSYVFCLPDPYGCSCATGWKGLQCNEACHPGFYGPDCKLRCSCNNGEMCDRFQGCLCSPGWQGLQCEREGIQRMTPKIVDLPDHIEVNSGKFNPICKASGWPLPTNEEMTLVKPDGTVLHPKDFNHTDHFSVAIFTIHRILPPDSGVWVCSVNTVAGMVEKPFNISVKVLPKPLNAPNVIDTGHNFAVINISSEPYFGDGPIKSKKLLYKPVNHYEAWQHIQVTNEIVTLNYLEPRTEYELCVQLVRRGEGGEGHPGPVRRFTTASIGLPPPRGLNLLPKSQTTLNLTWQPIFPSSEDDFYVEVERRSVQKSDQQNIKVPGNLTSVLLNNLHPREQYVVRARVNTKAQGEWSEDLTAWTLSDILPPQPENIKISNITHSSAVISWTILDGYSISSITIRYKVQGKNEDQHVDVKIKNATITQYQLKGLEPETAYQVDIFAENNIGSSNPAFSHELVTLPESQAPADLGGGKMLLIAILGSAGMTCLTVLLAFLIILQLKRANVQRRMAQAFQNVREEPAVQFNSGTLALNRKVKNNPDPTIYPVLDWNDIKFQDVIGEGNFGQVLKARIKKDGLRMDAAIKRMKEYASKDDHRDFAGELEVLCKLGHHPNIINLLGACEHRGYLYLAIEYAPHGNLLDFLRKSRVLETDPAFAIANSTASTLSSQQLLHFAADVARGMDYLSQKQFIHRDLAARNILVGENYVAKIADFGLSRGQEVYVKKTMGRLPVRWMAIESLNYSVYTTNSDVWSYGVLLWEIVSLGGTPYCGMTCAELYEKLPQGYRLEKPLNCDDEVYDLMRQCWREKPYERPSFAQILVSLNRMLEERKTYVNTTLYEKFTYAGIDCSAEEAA

Structure (SMILES)	IC50 [1]	IC50 [2]	IC50 [5]	IC50 [3]	IC50 [4]
COc1ccc(-c2cc3c(N)ncnc3o2)cc1 [GW642138X]	> 20000 nM	> 17000 nM			
COc1ccc(-c2coc3ncnc(N)c23)cc1 [GW642125X]	> 20000 nM	5500 nM			
COc1ccc(-c2oc3ncnc(N)c3c2-c2cccc(NC(C)=O)c2)cc1	> 20000 nM				
COc1ccc(-c2c(-c3ccc(Cl)c(Cl)c3)oc3ncnc(N)c23)cc1		> 20000 nM			

Continued by falling IC50 [1], values first:

IC50 [1]	IC50 [2]	IC50 [5]	Structure (SMILES)	IC50 [3]	IC50 [4]
1000 nM	1120 nM		COc1ccc(-c2oc3ncnc(N)c3c2-c2ccc(OC)cc2)cc1		
2 nM	3 nM	6.3 nM	COc1ccc(-c2oc3ncnc(N)c3c2-c2ccc(NC(=O)Nc3cc(C(F)(F)F)ccc3F)cc2)cc1	790 nM	45 nM
